Source: patent US10239851B2 (priority 2014, dated 2019)
Like-named read-outs stand apart in the source and are kept apart here. Marks after values point to notes of the source that are not given here.

Assays:
KM mice = assay: ED50 and LD50 test concerning anesthesia (sequential method) in mice; assay type: in vivo; details: for Mouse ED50: anesthesia (loss of righting reflex); for Mouse ED50 / Mouse LD50: caudal vein injection
Description: (§1) Test samples for the experiment on rabbit were formulated to have corresponding concentrations based on the results from a preliminary test. […] Rats and mice were administered with samples having a fixed concentration of drugs, while the volume of administration altered according to actual situation. The volume of administration to rabbits was 1 mL/kg body weight.
(§2) ED50 and LD50 values concerning anesthesia were determined using a sequential method. Healthy KM mice (male), SD rats (male) and New Zealand White rabbits were used for test. […] For rabbits, the compounds were administered by injection at a constant rate via ear vein for 30 seconds. Before the test, a preliminary test was conducted to determine an approximate dosage (volume of administration) that leads to anesthetization (or death) of animals, which was set as the middle dosage in the formal test. […] The disappearance of righting reflex or death was used as indicators of pharmacological efficacy or toxicity, respectively. The formal test began with the administration of the middle dosage. If animals were anesthetized, a lower dosage was administered; if animals were not anesthetized, a higher dosage was administered, until the cycle was repeated for 3-4 times. LD50 and ED50 were calculated by a sequential method aot425 software. TI was calculated according to the following equation: TI=LD50/ED50.

SD rats = assay: ED50 and LD50 test concerning anesthesia (sequential method) in rats; assay type: in vivo; details: for Rat ED50: anesthesia (loss of righting reflex); for Rat ED50 / Rat LD50: caudal vein injection
Description: as §1, §2

[1] = tested on: New Zealand White rabbits; assay: ED50 and LD50 test concerning anesthesia (sequential method) in rabbits; assay type: in vivo; details: for TI index: TI=LD50/ED50; for LD50 / ED50: injection via ear vein; for LD50: death; for ED50: disappearance of righting reflex
Description: as §1, §2

Kunming mice = assay: Latent period and persistent period of anesthesia in mice; assay type: in vivo; details: intravenous injection
[2] = rabbit plasma, 37° C.; for Sampling time/dissociation percent (%) 15 s / Sampling time/dissociation percent (%) 30 s: formula F derivatives
Description: (§3) 0.1 ml samples were taken from each of the solutions, added respectively to 1 ml of blood plasma of rabbit (taken from New Zealand white rabbits, treated according to conventional methods, anticoagulated with heparin) or 1 ml of blood plasma of rat (taken from live SD rats, treated according to conventional methods, anticoagulated with heparin), homogeneously mixed, and placed in a thermostatic water bath at 37° C. for incubation with time being recorded. Samples were taken at different time points after the experiment began, and 2 ml of acetonitrile was immediately added. The samples were shaken and centrifuged for 5 min (15,000 rpm), and the supernatant was then taken for HPLC analysis.

[3] = rat plasma, 37° C.; for Sampling time/dissociation percent (%) 5 s / Sampling time/dissociation percent (%) 15 s / Sampling time/dissociation percent (%) 30 s: formula F derivatives
Description: as §3

[4] = In vitro dissociation of the water soluble taxane derivatives in blood plasma of rat; assay type: in vitro ADME, SD rats; details: 37° C.
Description: The obtained water soluble taxane derivatives were formulated as 0.2 mg/ml aqueous solutions. […] After 2 min, 5 min and 10 min of incubation, 0.2 ml of solutions were respectively taken from each of the samples, and added to acetonitrile (0.4 ml) cooled to −20° C. for precipitation of protein.

[5] = In vitro dissociation of the water soluble taxane derivatives in blood plasma of rabbit; assay type: in vitro ADME, New Zealand white rabbits; details: 37° C.
Description: The obtained water soluble taxane derivatives were formulated as 0.2 mg/ml aqueous solutions. […] After 5 min, 20 min and 60 min of incubation, 0.2 ml of solutions were respectively taken from each of the samples, and added to acetonitrile (0.4 ml) cooled to −20° C. for precipitation of protein.

[6] = tested on: human prostate cancer PC-3; details: PC-3 xenograft, nude mice; 33.6 mg/kg, D0 IV, single dose; D20;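 also: human prostate cancer PC-3 cells implanted under the skin of nude mice to form the xenograft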
Description: Test of the inhibitory activity of the water soluble docetaxel derivatives on subcutaneously xenografted tumor of human prostate cancer PC-3 in nude mice: evaluating and comparing the inhibitory activity of the water soluble docetaxel derivatives and docetaxel on subcutaneously xenografted tumor of human prostate cancer PC-3 in nude mice.
Human prostate cancer PC-3 cells were subcutaneously inoculated into nude mice. After the tumor volume reached 100-150 mm^3, the animals were randomly divided into several groups, and administered with the water soluble docetaxel derivatives of the present invention and docetaxel, respectively once on the same day (D0). The tumor volume was measured 2-3 times per week, the animals were weighed and the data were recorded until day 20 (D20) after grouping.
The tumor volume (V) was calculated according to the equation: V=½×a×b^2, wherein a and b represent the length and the width, respectively.
T/C (%)=(T−T0)/(C−C0)×100, wherein T and C represent the tumor volume at the end of the experiment; and T0 and C0 represent the tumor volume at the beginning of the experiment.

mice = details: intravenous, equimolar amounts to propofol
[7] = 3 mg/ml solution, confirmation test
[8] = 6 mg/ml solution, confirmation test
[9] = dosage 2 * ED50, 3 mg/ml solution
[10] = dosage 2 * ED50, 6 mg/ml solution
[11] = formula G derivatives, sampling time 15 s

Structure (SMILES): CC(C)c1cccc(C(C)C)c1OC(=O)[C@H](F)CCN(C)C.Cl [Compound E2, Propofol 4-(N,N-dimethyl)amino-2(R)-fluorobutyrate Hydrochloride]
- TI Mouse (KM mice; [7]): 3^
- TI Mouse (KM mice; 3 mg/ml solution, first test): 4*
- TI Mouse (KM mice; [8]): 3.7
- TI Mouse (KM mice; 6 mg/ml solution, first test): 3.6*
- Mouse ED50 (KM mice; [7]): 15.4 mg/kg
- Mouse ED50 (KM mice; 3 mg/ml solution, first test): 17.9 mg/kg
- Mouse ED50 (KM mice; [8]): 13.0 mg/kg
- Mouse ED50 (KM mice; 6 mg/ml solution, first test): 15.2 mg/kg
- Mouse LD50 (KM mice; [7]): 46.9 mg/kg
- Mouse LD50 (KM mice; 3 mg/ml solution, first test): 71.8 mg/kg
- Mouse LD50 (KM mice; [8]): 48.0 mg/kg
- Mouse LD50 (KM mice; 6 mg/ml solution, first test): 55.1 mg/kg
- TI Rat (SD rats; 3 mg/ml solution): 3.8
- TI Rat (SD rats; 6 mg/ml solution): 3.1
- Rat ED50 (SD rats; 3 mg/ml solution): 9.8 mg/kg
- Rat ED50 (SD rats; 6 mg/ml solution): 10.1 mg/kg
- Rat LD50 (SD rats; 3 mg/ml solution): 37.5 mg/kg
- Rat LD50 (SD rats; 6 mg/ml solution): 30.7 mg/kg
- TI index [1]: 3.5
- LD50 [1]: 28 (23.0-34.2) mg/kg
- ED50 [1]: 8 (5.7-10.5) mg/kg
- Latent Period (Kunming mice; [9]): 14.6 ± 0.9 s
- Persistent period (Kunming mice; [9]): 383.6 ± 242.1 s
- Latent Period (Kunming mice; [10]): 14.2 ± 1.9 s
- Persistent period (Kunming mice; [10]): 543 ± 231 s
- dissociation percent ([2]; 15 s): 97.7%
- dissociation percent ([2]; 30 s): 100%
- dissociation percent ([3]; 5 s): 100%

Structure (SMILES): CC(=O)O[C@@]12CO[C@@H]1C[C@H](O)[C@@]1(C)C(=O)[C@H](O)C3=C(C)[C@@H](OC(=O)[C@H](OC(=O)C(F)CCN(C)C)[C@@H](NC(=O)OC(C)(C)C)c4ccccc4)C[C@@](O)([C@@H](OC(=O)c4ccccc4)[C@H]21)C3(C)C.CS(=O)(=O)O (stereo partly drawn) [Compound C6, 2′-O-[4-(N,N-dimethyl)amino-2(R,S)-fluorobutyryl]docetaxel methanesulfonate]
- dissociation percent ([4]; 2 min): 59.1%
- dissociation percent ([4]; 5 min): 93.3%
- dissociation percent ([4]; 10 min): 100%
- dissociation percent ([5]; 5 min): 76.8%
- dissociation percent ([5]; 20 min): 97.8%
- dissociation percent ([5]; 60 min): 100%
- T/C (%) D20 [6]: −76%

Structure (SMILES): CC(=O)O[C@@]12CO[C@@H]1C[C@H](O)[C@@]1(C)C(=O)[C@H](O)C3=C(C)[C@@H](OC(=O)[C@H](OC(=O)[C@H](F)CCN(C)C)[C@@H](NC(=O)OC(C)(C)C)c4ccccc4)C[C@@](O)([C@@H](OC(=O)c4ccccc4)[C@H]21)C3(C)C.CS(=O)(=O)O [Compound C4, 2′-O-[4-(N,N-dimethyl)amino-2(R)-fluorobutyryl]docetaxel methanesulfonate]
- dissociation percent ([4]; 2 min): 59.2%
- dissociation percent ([4]; 5 min): 93.4%
- dissociation percent ([4]; 10 min): 100%
- dissociation percent ([5]; 5 min): 81.6%
- dissociation percent ([5]; 20 min): 94.8%
- dissociation percent ([5]; 60 min): 100%
- T/C (%) D20 [6]: −77%

Structure (SMILES): CC(=O)O[C@@]12CO[C@@H]1C[C@H](O)[C@@]1(C)C(=O)[C@H](O)C3=C(C)[C@@H](OC(=O)[C@H](OC(=O)[C@@H](F)CCN(C)C)[C@@H](NC(=O)OC(C)(C)C)c4ccccc4)C[C@@](O)([C@@H](OC(=O)c4ccccc4)[C@H]21)C3(C)C.CS(=O)(=O)O [Compound C5, 2′-O-[4-(N,N-dimethyl)amino-2(S)-fluorobutyryl]docetaxel methanesulfonate]
- dissociation percent ([4]; 2 min): 58.9%
- dissociation percent ([4]; 5 min): 93.3%
- dissociation percent ([4]; 10 min): 100%
- dissociation percent ([5]; 5 min): 81.2%
- dissociation percent ([5]; 20 min): 93.1%
- dissociation percent ([5]; 60 min): 100%
- T/C (%) D20 [6]: −76%

Structure (SMILES): CC(C)c1cccc(C(C)C)c1OC(=O)C(F)CC(=O)[O-].[Na+] [Compound F7, propofol 3-carboxyl-2(R)-fluorobutyrate sodium salt]
- TI Mouse (KM mice; [7]): 2.6
- TI Mouse (KM mice; 3 mg/ml solution, first test): 2.8*
- TI Mouse (KM mice; [8]): 3.1
- TI Mouse (KM mice; 6 mg/ml solution, first test): 2.4*
- Mouse ED50 (KM mice; [7]): 19.2 mg/kg
- Mouse ED50 (KM mice; 3 mg/ml solution, first test): 21.4 mg/kg
- Mouse ED50 (KM mice; [8]): 18.1 mg/kg
- Mouse ED50 (KM mice; 6 mg/ml solution, first test): 20.7 mg/kg
- Mouse LD50 (KM mice; [7]): 51.6 mg/kg
- Mouse LD50 (KM mice; 3 mg/ml solution, first test): 59.8 mg/kg
- Mouse LD50 (KM mice; [8]): 56.6 mg/kg
- Mouse LD50 (KM mice; 6 mg/ml solution, first test): 51.2 mg/kg
- TI Rat (SD rats; 3 mg/ml solution): 3.0
- TI Rat (SD rats; 6 mg/ml solution): 3.5
- Rat ED50 (SD rats; 3 mg/ml solution): 15.7 mg/kg
- Rat ED50 (SD rats; 6 mg/ml solution): 12.5 mg/kg
- Rat LD50 (SD rats; 3 mg/ml solution): 47.4 mg/kg
- Rat LD50 (SD rats; 6 mg/ml solution): 44.4 mg/kg
- TI index [1]: 2.6
- LD50 [1]: 36.7 (33.8-39.4) mg/kg
- ED50 [1]: 13.9 (11.1-16.8) mg/kg
- Latent Period (Kunming mice; [9]): 20.2 ± 0.6 s
- Persistent period (Kunming mice; [9]): 335.5 ± 218.1 s
- Latent Period (Kunming mice; [10]): 16.2 ± 2.2 s
- Persistent period (Kunming mice; [10]): 517 ± 231 s
- Sampling time/dissociation percent (%) 15 s ([2]; sampling time 15 s): 46.3%
- Sampling time/dissociation percent (%) 30 s ([2]; sampling time 30 s): 72.8%
- Sampling time/dissociation percent (%) 5 s ([3]; sampling time 5 s): 58.8%
- Sampling time/dissociation percent (%) 15 s ([3]; sampling time 15 s): 71.3%
- Sampling time/dissociation percent (%) 30 s [3]: 85.4%

Structure (SMILES): CC(C)c1cccc(C(C)C)c1OC(=O)C(F)CCC(=O)[O-].[Na+] (racemic) [Compound F1, propofol 4-carboxyl-2(R,S)-fluorovalerate sodium salt]
- TI Mouse (KM mice; [7]): 2.8
- TI Mouse (KM mice; 3 mg/ml solution, first test): 3*
- TI Mouse (KM mice; [8]): 3.3
- TI Mouse (KM mice; 6 mg/ml solution, first test): 2.7*
- Mouse ED50 (KM mice; [7]): 18.6 mg/kg
- Mouse ED50 (KM mice; 3 mg/ml solution, first test): 20.8 mg/kg
- Mouse ED50 (KM mice; [8]): 16.7 mg/kg
- Mouse ED50 (KM mice; 6 mg/ml solution, first test): 18.2 mg/kg
- Mouse LD50 (KM mice; [7]): 52.3 mg/kg
- Mouse LD50 (KM mice; 3 mg/ml solution, first test): 63.4 mg/kg
- Mouse LD50 (KM mice; [8]): 55.4 mg/kg
- Mouse LD50 (KM mice; 6 mg/ml solution, first test): 49.7 mg/kg
- TI Rat (SD rats; 3 mg/ml solution): 3.0
- TI Rat (SD rats; 6 mg/ml solution): 3.7
- Rat ED50 (SD rats; 3 mg/ml solution): 14.6 mg/kg
- Rat ED50 (SD rats; 6 mg/ml solution): 11.3 mg/kg
- Rat LD50 (SD rats; 3 mg/ml solution): 44.1 mg/kg
- Rat LD50 (SD rats; 6 mg/ml solution): 42.3 mg/kg
- TI index [1]: 2.8
- LD50 [1]: 34.4 (32.1-36.5) mg/kg
- ED50 [1]: 12.2 (10.6-14.6) mg/kg
- Latent Period (Kunming mice; [9]): 18.6 ± 0.7 s
- Persistent period (Kunming mice; [9]): 349.7 ± 229.4 s
- Latent Period (Kunming mice; [10]): 15.2 ± 1.4 s
- Persistent period (Kunming mice; [10]): 523 ± 248 s
- Sampling time/dissociation percent (%) 15 s ([2]; sampling time 15 s): 47.5%
- Sampling time/dissociation percent (%) 30 s ([2]; sampling time 30 s): 75.5%
- Sampling time/dissociation percent (%) 5 s ([3]; sampling time 5 s): 64.1%
- Sampling time/dissociation percent (%) 15 s ([3]; sampling time 15 s): 70.2%
- Sampling time/dissociation percent (%) 30 s [3]: 86.7%

Structure (SMILES): CC(C)c1cccc(C(C)C)c1OC(=O)[C@@H](F)CCOP(=O)([O-])[O-].[Na+].[Na+] [Compound G2, {1-[4-(2,6-diisopropylphenoxy)-4-oxo-3-(S)-3-fluoro-1-butyl]} phosphate monoester disodium salt]
- TI Mouse (KM mice; [7]): 3.0
- TI Mouse (KM mice; 3 mg/ml solution, first test): 2.8*
- TI Mouse (KM mice; [8]): 2.3
- TI Mouse (KM mice; 6 mg/ml solution, first test): 1.9*
- Mouse ED50 (KM mice; [7]): 19.8 mg/kg
- Mouse ED50 (KM mice; 3 mg/ml solution, first test): 23.7 mg/kg
- Mouse ED50 (KM mice; [8]): 22.8 mg/kg
- Mouse ED50 (KM mice; 6 mg/ml solution, first test): 25.6 mg/kg
- Mouse LD50 (KM mice; [7]): 60.4 mg/kg
- Mouse LD50 (KM mice; 3 mg/ml solution, first test): 65.7 mg/kg
- Mouse LD50 (KM mice; 6 mg/ml solution, first test): 48.7 mg/kg
- TI Rat (SD rats; 3 mg/ml solution): 3.3
- TI Rat (SD rats; 6 mg/ml solution): 2.8
- Rat ED50 (SD rats; 6 mg/ml solution): 21.1 mg/kg
- LD50 [1]: 38.7 (35.1-41.3) mg/kg
- ED50 [1]: 14.7 (12.6-19.1) mg/kg
- Latent Period (Kunming mice; [9]): 16.3 ± 0.8 s
- Persistent period (Kunming mice; [9]): 383.6 ± 242.1 s
- Latent Period (Kunming mice; [10]): 15.7 ± 2.3 s
- Persistent period (Kunming mice; [10]): 571 ± 173 s
- Sampling time/dissociation percent (%) 15 S [2, 11]: 37.2%
- Sampling time/dissociation percent (%) 30 S ([2]; formula G derivatives, sampling time 30 s): 54.3%
- Sampling time/dissociation percent (%) 5 S ([3]; formula G derivatives, sampling time 5 s): 48.5%
- Sampling time/dissociation percent (%) 15 S [3, 11]: 69.7%

Structure (SMILES): CC(C)c1cccc(C(C)C)c1OC(=O)CCCN(C)C.Cl [J′-1, reference compound]
- latent period for anesthesia compared to propofol (mice): much longer than those of propofol
- neurotoxic response after waking up (mice): transient hemiplegia after waking up
- persistent period for anesthesia compared to propofol (mice): much longer than those of propofol

Structure (SMILES): CC(C)c1cccc(C(C)C)c1OC(=O)[C@H](F)CCN(C)C.Cl [J′]
- latent period for anesthesia compared to propofol (mice): almost equal to those of propofol
- neurotoxic response after waking up (mice): no neurotoxic response was observed
- persistent period for anesthesia compared to propofol (mice): almost equal to those of propofol
